± gives the expanded uncertainty stated by the source.
Settings: Vibrating tube method; for specific volume: Gas; for mass density: Liquid

F/C=C\C(F)(F)F [(Z)-1,3,3,3-tetrafluoro-1-propene]
specific volume (328.15 K, 202.5 kPa): 0.111 ± 0.001 m3/kg | specific volume (328.15 K, 209.8 kPa): 0.107 ± 0.001 m3/kg | specific volume (328.15 K, 232.5 kPa): 0.095 ± 0.001 m3/kg | specific volume (328.15 K, 370.9 kPa): 0.057 ± 0.001 m3/kg | specific volume (330.15 K, 287.2 kPa): 0.076 ± 0.001 m3/kg | specific volume (333.15 K, 90.7 kPa): 0.26 ± 0.005 m3/kg | specific volume (333.15 K, 126.2 kPa): 0.185 ± 0.003 m3/kg | specific volume (333.15 K, 206.1 kPa): 0.111 ± 0.001 m3/kg | specific volume (333.15 K, 213.5 kPa): 0.107 ± 0.001 m3/kg | specific volume (333.15 K, 236.7 kPa): 0.096 ± 0.001 m3/kg | specific volume (333.15 K, 378.4 kPa): 0.057 ± 0.001 m3/kg | mass density (333.15 K, 30992 kPa): 1237.9 ± 1.7 kg/m3 | mass density (333.15 K, 31993 kPa): 1240.4 ± 1.7 kg/m3 | mass density (333.16 K, 3769 kPa): 1141.2 ± 1.7 kg/m3 | mass density (333.16 K, 4787 kPa): 1146.4 ± 1.7 kg/m3 | mass density (333.16 K, 5795 kPa): 1151.4 ± 1.7 kg/m3 | mass density (333.16 K, 6804 kPa): 1156.2 ± 1.7 kg/m3 | mass density (333.16 K, 7816 kPa): 1160.8 ± 1.7 kg/m3 | mass density (333.16 K, 8825 kPa): 1165.2 ± 1.7 kg/m3 | mass density (333.16 K, 9828 kPa): 1169.5 ± 1.7 kg/m3 | mass density (333.16 K, 10837 kPa): 1173.6 ± 1.7 kg/m3 | mass density (333.16 K, 11848 kPa): 1177.7 ± 1.7 kg/m3 | mass density (333.16 K, 12859 kPa): 1181.6 ± 1.7 kg/m3 | mass density (333.16 K, 13868 kPa): 1185.4 ± 1.7 kg/m3 | mass density (333.16 K, 15876 kPa): 1192.7 ± 1.7 kg/m3 | mass density (333.16 K, 16881 kPa): 1196.2 ± 1.7 kg/m3 | mass density (333.16 K, 17896 kPa): 1199.7 ± 1.7 kg/m3 | mass density (333.16 K, 18911 kPa): 1203 ± 1.7 kg/m3 | mass density (333.16 K, 19925 kPa): 1206.3 ± 1.7 kg/m3 | mass density (333.16 K, 20935 kPa): 1209.5 ± 1.7 kg/m3 | mass density (333.16 K, 21937 kPa): 1212.6 ± 1.7 kg/m3 | mass density (333.16 K, 23957 kPa): 1218.6 ± 1.7 kg/m3 | mass density (333.16 K, 24963 kPa): 1221.5 ± 1.7 kg/m3 | mass density (333.16 K, 25970 kPa): 1224.4 ± 1.7 kg/m3 | mass density (333.16 K, 26975 kPa): 1227.2 ± 1.7 kg/m3 | mass density (333.16 K, 27976 kPa): 1229.9 ± 1.7 kg/m3 | mass density (333.16 K, 28983 kPa): 1232.6 ± 1.7 kg/m3 | mass density (333.16 K, 29987 kPa): 1235.2 ± 1.7 kg/m3 | mass density (333.16 K, 32999 kPa): 1243 ± 1.7 kg/m3 | mass density (333.16 K, 34003 kPa): 1245.5 ± 1.8 kg/m3 | mass density (333.17 K, 574 kPa): 1123.1 ± 1.7 kg/m3 | mass density (333.17 K, 754 kPa): 1124.2 ± 1.7 kg/m3 | mass density (333.17 K, 1756 kPa): 1130.2 ± 1.7 kg/m3 | mass density (333.17 K, 2756 kPa): 1135.8 ± 1.7 kg/m3 | mass density (333.17 K, 14875 kPa): 1189.1 ± 1.7 kg/m3 | mass density (333.17 K, 22950 kPa): 1215.6 ± 1.7 kg/m3 | specific volume (335.15 K, 292.6 kPa): 0.077 ± 0.001 m3/kg | specific volume (338.15 K, 92.1 kPa): 0.26 ± 0.005 m3/kg | specific volume (338.15 K, 128.2 kPa): 0.185 ± 0.003 m3/kg | specific volume (338.15 K, 209.7 kPa): 0.111 ± 0.001 m3/kg | specific volume (338.15 K, 217.2 kPa): 0.107 ± 0.001 m3/kg | specific volume (338.15 K, 240.9 kPa): 0.096 ± 0.001 m3/kg | specific volume (338.15 K, 385.9 kPa): 0.057 ± 0.001 m3/kg | specific volume (340.15 K, 298 kPa): 0.077 ± 0.001 m3/kg | mass density (343.14 K, 680 kPa): 1090.7 ± 1.7 kg/m3 | mass density (343.14 K, 761 kPa): 1091.4 ± 1.7 kg/m3 | mass density (343.14 K, 1766 kPa): 1098.6 ± 1.7 kg/m3 | mass density (343.14 K, 2771 kPa): 1105.3 ± 1.7 kg/m3 | mass density (343.14 K, 3798 kPa): 1111.8 ± 1.7 kg/m3 | mass density (343.14 K, 4828 kPa): 1117.9 ± 1.7 kg/m3 | mass density (343.14 K, 5833 kPa): 1123.5 ± 1.7 kg/m3 | mass density (343.14 K, 6839 kPa): 1129 ± 1.7 kg/m3 | mass density (343.14 K, 7846 kPa): 1134.2 ± 1.7 kg/m3 | mass density (343.14 K, 8850 kPa): 1139.2 ± 1.7 kg/m3 | mass density (343.14 K, 9856 kPa): 1144 ± 1.7 kg/m3 | mass density (343.14 K, 10867 kPa): 1148.6 ± 1.7 kg/m3 | mass density (343.14 K, 11874 kPa): 1153.1 ± 1.7 kg/m3 | mass density (343.14 K, 12884 kPa): 1157.5 ± 1.7 kg/m3 | mass density (343.14 K, 13894 kPa): 1161.7 ± 1.7 kg/m3 | mass density (343.14 K, 14898 kPa): 1165.7 ± 1.7 kg/m3 | mass density (343.14 K, 15909 kPa): 1169.7 ± 1.7 kg/m3 | mass density (343.14 K, 16918 kPa): 1173.5 ± 1.7 kg/m3 | mass density (343.14 K, 17921 kPa): 1177.2 ± 1.7 kg/m3 | mass density (343.14 K, 18924 kPa): 1180.9 ± 1.7 kg/m3 | mass density (343.14 K, 19929 kPa): 1184.4 ± 1.7 kg/m3 | mass density (343.14 K, 20931 kPa): 1187.8 ± 1.7 kg/m3 | mass density (343.14 K, 21941 kPa): 1191.3 ± 1.7 kg/m3 | mass density (343.14 K, 22943 kPa): 1194.6 ± 1.7 kg/m3 | mass density (343.14 K, 24955 kPa): 1201 ± 1.7 kg/m3 | mass density (343.14 K, 25963 kPa): 1204 ± 1.7 kg/m3 | mass density (343.14 K, 26970 kPa): 1207.1 ± 1.7 kg/m3 | mass density (343.14 K, 27977 kPa): 1210 ± 1.7 kg/m3 | mass density (343.14 K, 28983 kPa): 1212.9 ± 1.7 kg/m3 | mass density (343.14 K, 29990 kPa): 1215.8 ± 1.7 kg/m3 | mass density (343.14 K, 30998 kPa): 1218.7 ± 1.7 kg/m3 | mass density (343.14 K, 32004 kPa): 1221.4 ± 1.7 kg/m3 | mass density (343.14 K, 34007 kPa): 1226.7 ± 1.7 kg/m3 | specific volume (343.15 K, 93.6 kPa): 0.26 ± 0.005 m3/kg | specific volume (343.15 K, 130.3 kPa): 0.185 ± 0.003 m3/kg | specific volume (343.15 K, 213.3 kPa): 0.111 ± 0.001 m3/kg | specific volume (343.15 K, 220.9 kPa): 0.107 ± 0.001 m3/kg | specific volume (343.15 K, 245.1 kPa): 0.096 ± 0.001 m3/kg | specific volume (343.15 K, 393.2 kPa): 0.057 ± 0.001 m3/kg | mass density (343.15 K, 23946 kPa): 1197.8 ± 1.7 kg/m3 | mass density (343.15 K, 33006 kPa): 1224.1 ± 1.7 kg/m3 | specific volume (345.15 K, 303.3 kPa): 0.077 ± 0.001 m3/kg | specific volume (348.15 K, 95 kPa): 0.26 ± 0.005 m3/kg | specific volume (348.15 K, 132.4 kPa): 0.185 ± 0.003 m3/kg | specific volume (348.15 K, 216.8 kPa): 0.111 ± 0.001 m3/kg | specific volume (348.15 K, 224.6 kPa): 0.107 ± 0.001 m3/kg | specific volume (348.15 K, 249.2 kPa): 0.096 ± 0.001 m3/kg | specific volume (348.15 K, 400.6 kPa): 0.057 ± 0.001 m3/kg | specific volume (350.15 K, 308.6 kPa): 0.077 ± 0.001 m3/kg
